This note sets out measurements from ChEMBL document CHEMBL1132522, “A new potent inhibitor of fungal melanin biosynthesis identified through combinatorial chemistry” (Bioorg Med Chem Lett, 1999).

The Ki is the equilibrium dissociation constant of an inhibitor or competing ligand from its target. A higher Ki goes with weaker binding.

In one assay the target is T1, Scytalone dehydratase (Magnaporthe oryzae (strain 70-15 / FGSC 8958) (Rice blast fungus)(Pyricularia oryzae), UniProt P56221).
T1 sequence (P56221 whole entry): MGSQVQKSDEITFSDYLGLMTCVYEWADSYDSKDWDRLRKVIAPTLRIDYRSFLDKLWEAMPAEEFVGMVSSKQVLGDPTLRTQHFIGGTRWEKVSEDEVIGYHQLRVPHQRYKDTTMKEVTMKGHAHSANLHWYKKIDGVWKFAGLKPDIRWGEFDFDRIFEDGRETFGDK
The assay is described as follows: Inhibitory activity against Scytalone dehydratase. Set-up: species or system Pyricularia grisea.

A further assay deals with Oryza sp. The assay is described as follows: Compound was evaluated for protecting rice plants from infestation by blast upon foliar application. The format is functional.

As for `CC(CCc1ccccc1)NC(=O)C1(C(F)(F)F)CC(C)(Cl)C1` (configuration not stated), on Scytalone dehydratase, the Ki came out at 8.6 nM.

As to `C[C@@H](NC(=O)C1(C(F)(F)F)CC(C)(Cl)C1)c1ccc(Br)cc1` (some centres not stated), on Scytalone dehydratase, the Ki came out at 0.049 nM.

At Scytalone dehydratase, `CC(NC(=O)C1(C(F)(F)F)CC(C)(Cl)C1)c1ccc(Oc2ccccc2)cc1` (configuration not stated) showed a Ki of 5.6 nM.

The compound `C[C@H](COc1ccccc1F)NC(=O)C1(C(F)(F)F)CC(C)(Cl)C1` (some centres not stated) showed a Ki at Scytalone dehydratase of 0.78 nM.

As for `C[C@@H](NC(=O)[C@]1(C(F)(F)F)C[C@](C)(Cl)C1)c1ccc(Br)cc1` (stereo in doubt; 3a), the affinity on Scytalone dehydratase corresponds to a Ki of 2.3 nM.

As to `C[C@@H](NC(=O)[C@]1(C(F)(F)F)C[C@](C)(Cl)C1)c1ccc(Br)cc1` (stereo in doubt; 3b), in the assay with Oryza sp., the ED90 turned out to be 40 p.p.m. Besides, the affinity on Scytalone dehydratase corresponds to a Ki of 0.026 nM.
